Publication PMC3901259, “Characterisation of the Metabolites of 1,8-Cineole Transferred into Human Milk: Concentrations and Ratio of Enantiomers” (Metabolites, 2013)

Assay: Quantification of 1,8-cineole metabolites in human milk (SAFE, GC-MS, internal standard and matrix calibration) after oral intake of 100 mg 1,8-cineole
Type: in vivo
Conditions: for Absolute concentration in human milk: single determination
In short: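 Lactating mothers took one capsule with 100 mg 1,8-cineole orally; milk expressed after eucalyptus odour noticed on breath (14 samples, 8 donors). Volatiles isolated by SAFE at 50 °C with deuterated 1,8-cineole internal standard, concentrated, and quantified by GC-MS on DB-FFAP and DB-5 columns; chiral columns for enantiomer ratios.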

CC1(C)OC2(C)CCC1CC2O (stereo not drawn) [a2-hydroxy-1,8-cineole, α2-hydroxy-1,8-cineole]
Concentration range in human milk (abstract/conclusions) (after oral 100 mg 1,8-cineole, rounded summary): 100 to 250 µg/kg
Share of the metabolites on average (human milk, roughly estimated): about 70%
Estimated maximum level in human milk (concentration calculated with the last calibration point, in parentheses) (sample A-1a (no odour)): < 1.37 µg/kg
Absolute concentration in human milk (sample A-1a (no odour), oral 100 mg 1,8-cineole, values given with (<x) lie beyond calibration range, approximation): 0.65 µg/kg
Absolute concentration in human milk (sample A-1b (odour yes), oral 100 mg 1,8-cineole, values given with (<x) are approximations): 138.10 µg/kg
Absolute concentration in human milk (sample B-1 (odour yes), oral 100 mg 1,8-cineole, values given with (<x) are approximations): 176.30 µg/kg
Absolute concentration in human milk (sample B-2a (no odour), oral 100 mg 1,8-cineole): 0.61 µg/kg
Absolute concentration in human milk (sample B-2b (odour yes), oral 100 mg 1,8-cineole, values given with (<x) are approximations): 113.55 µg/kg
Absolute concentration in human milk (sample B-2c (no odour), oral 100 mg 1,8-cineole): 29.25 µg/kg
Absolute concentration in human milk (sample C (no odour; very weak odour not caused by 1,8-cineole), oral 100 mg 1,8-cineole, values given with (<x) are approximations): 7.68 µg/kg
Absolute concentration in human milk (sample D-1 (no odour), oral 100 mg 1,8-cineole, values given with (<x) are approximations): 15.08 µg/kg
Absolute concentration in human milk (sample D-2 (odour yes), oral 100 mg 1,8-cineole, values given with (<x) are approximations): 135.98 µg/kg
Absolute concentration in human milk (sample E-1 (no odour), oral 100 mg 1,8-cineole, values given with (<x) are approximations): 2.02 µg/kg
Absolute concentration in human milk (sample E-2 (odour yes), oral 100 mg 1,8-cineole, values given with (<x) are approximations): 233.31 µg/kg
Absolute concentration in human milk (sample F (no odour), parent ingested two capsules, values given with (<x) are approximations): 3.16 µg/kg
Absolute concentration in human milk (sample G (odour yes), oral 100 mg 1,8-cineole, values given with (<x) are approximations): 98.83 µg/kg
Absolute concentration in human milk (sample H (odour yes), oral 100 mg 1,8-cineole, values given with (<x) are approximations): 206.09 µg/kg
Concentration range in human milk samples (seven positive samples (eucalyptus-like odour), Figure 2): 99 to 233 µg/kg
